From ChEMBL document CHEMBL4049382, “4-Hydroxyphenylpyruvate Dioxygenase and Its Inhibition in Plants and Animals: Small Molecules as Herbicides and Agents for the Treatment of Human Inherited Diseases” (J Med Chem, 2017) come the findings set out here.

Data set [1] concerns Homo sapiens. As to the kind of experiment: Effect on tyrosine level in plasma in human at 1 mg/kg, po up to 120 hrs (reference value: 0.076 mM). The note with it: in vivo.
For data set [2], the target named is 4-hydroxyphenylpyruvate dioxygenase (Rattus norvegicus) (UniProt P32755). To be noted: Wistar, 50 nM.
Sequence of 4-hydroxyphenylpyruvate dioxygenase (Rattus norvegicus) (P32755 whole entry): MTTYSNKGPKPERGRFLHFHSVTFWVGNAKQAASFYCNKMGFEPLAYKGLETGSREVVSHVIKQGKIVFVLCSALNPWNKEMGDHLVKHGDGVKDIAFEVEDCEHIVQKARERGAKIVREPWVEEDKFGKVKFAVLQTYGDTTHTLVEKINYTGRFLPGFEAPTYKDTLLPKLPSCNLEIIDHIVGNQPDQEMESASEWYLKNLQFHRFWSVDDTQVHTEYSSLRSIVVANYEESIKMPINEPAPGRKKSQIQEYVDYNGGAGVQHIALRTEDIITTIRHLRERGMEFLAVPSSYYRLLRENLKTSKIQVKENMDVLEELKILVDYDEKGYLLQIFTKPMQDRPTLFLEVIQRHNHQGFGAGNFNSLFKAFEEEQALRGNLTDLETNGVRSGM
Description: Inhibition of Wistar rat liver HPPD using 4-Hydroxyphenylpyruvate as substrate assessed as reduction in oxygen consumption at 50 nM preincubated for 3 mins followed by substrate addition measured after 30 secs
A short description of data set [3]: Half life in human plasma at 1 mg/kg.
The nature of data set [4]: In vitro half life of rat HPPD complex.
The species named for data set [5] is Rattus norvegicus.
Description: In vivo inhibition of HPPD in rat assessed dissociation half life for enzyme-compound complex in plasma
Data set [6] has as its system Rattus norvegicus. As to the kind of experiment: In vivo inhibition of Tyr hydroxylase in rat assessed as tyr concentration in plasma by colorimetric assay (reference value: 0.1 mM). Type of data set: functional.
Data set [7] relates to Homo sapiens. As to the kind of experiment: In vivo inhibition of HPPD in human assessed dissociation half life for enzyme-compound complex in plasma. In kind it is functional, organism-based.
In data set [8] the test system is Homo sapiens. The data set is described as follows: Effect on tyrosine level in plasma in human at 1 mg/kg, po under uncontrolled diet (reference value: 0.076 mM). Type of data set: ADME, organism-based. The note with it: in vivo.
Data set [9] deals with T1, 4-hydroxyphenylpyruvate dioxygenase (Arabidopsis thaliana, UniProt P93836).
T1 sequence (P93836 whole entry): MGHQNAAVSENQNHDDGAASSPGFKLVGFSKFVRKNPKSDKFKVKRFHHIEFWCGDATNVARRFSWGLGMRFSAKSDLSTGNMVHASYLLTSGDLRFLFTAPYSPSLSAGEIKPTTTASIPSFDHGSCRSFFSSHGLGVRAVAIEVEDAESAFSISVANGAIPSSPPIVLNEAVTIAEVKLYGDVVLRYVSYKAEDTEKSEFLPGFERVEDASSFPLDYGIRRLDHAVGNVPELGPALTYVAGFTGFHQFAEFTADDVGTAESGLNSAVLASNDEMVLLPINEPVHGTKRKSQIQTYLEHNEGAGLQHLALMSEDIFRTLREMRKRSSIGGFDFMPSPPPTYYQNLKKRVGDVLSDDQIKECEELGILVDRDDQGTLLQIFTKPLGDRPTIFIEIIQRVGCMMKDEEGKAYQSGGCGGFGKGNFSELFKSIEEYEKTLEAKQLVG
As to the kind of experiment: Inhibition of Arabidopsis thaliana HPPD expressed in Escherichia coli BL21(DE3) using HPPA as substrate after 10 mins by UV-Vis spectrometric analysis.

Data set [10] deals with T1, 4-hydroxyphenylpyruvate dioxygenase. The data set is described as follows: Inhibition of Arabidopsis thaliana HPPD expressed in Escherichia coli JM109 using HPPA as substrate after 10 mins.
Data set [11] has the same target. The data set is described as follows: Inhibition of Arabidopsis thaliana HPPD expressed in Escherichia coli JM105 using HPPA as substrate after preincubated for 15 min followed by substrate addition by HPLC analysis.
For data set [12] the target is unchanged. The data set is described as follows: Inhibition of Arabidopsis thaliana HPPD expressed in Escherichia coli JM105 using 4-HPP as substrate preincubated for 15 mins followed by substrate addition measured after 15 mins by HPLC analysis.
For data set [13], the target named is T2, 4-hydroxyphenylpyruvate dioxygenase (Sus scrofa, UniProt Q02110). The data set is described as follows: Inhibition of pig liver HPPD using 4-hydroxyphenylpyruvic acid as substrate after 15 mins by spectrophotometric analysis.
T2 sequence (Q02110 whole entry): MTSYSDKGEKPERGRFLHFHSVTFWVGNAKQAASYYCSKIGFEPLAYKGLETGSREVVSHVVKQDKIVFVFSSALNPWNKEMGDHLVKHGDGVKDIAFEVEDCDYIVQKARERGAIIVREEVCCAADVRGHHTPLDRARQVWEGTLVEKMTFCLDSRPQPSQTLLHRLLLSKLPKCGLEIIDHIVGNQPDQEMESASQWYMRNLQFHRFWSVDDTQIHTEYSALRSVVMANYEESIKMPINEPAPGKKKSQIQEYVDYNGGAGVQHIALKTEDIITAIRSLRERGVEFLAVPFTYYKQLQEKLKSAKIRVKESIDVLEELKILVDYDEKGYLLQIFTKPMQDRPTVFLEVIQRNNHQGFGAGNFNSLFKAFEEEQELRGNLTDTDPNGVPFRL
In data set [14] the target is T2, 4-hydroxyphenylpyruvate dioxygenase. The data set is described as follows: Inhibition of pig liver HPPD using HPP as substrate after 15 mins.
Data set [15] concerns Rattus norvegicus. The data set is described as follows: In vivo inhibition of HPPD activity in rat assessed as micoL of O2 consumed in liver cytosol at 0.1 to 5 mg/kg/day measured after 90 days (reference value: 91%). In kind it is functional.
The subject of data set [16] is Rattus norvegicus. The data set is described as follows: In vivo inhibition of HGD activity in rat assessed as micoL of O2 consumed in liver cytosol at 5 to 100 mg/kg/day measured after 90 days relative to control. Type of data set: functional.
The test system of data set [17] is Rattus norvegicus. The data set is described as follows: In vivo inhibition of TAT activity in rat assessed as 4-hydroxyphenylpyruvate formed in liver cytosol at 50 to 100 mg/kg/day measured after 90 days relative to control. In kind it is functional.
In data set [18] the test system is Homo sapiens. As to the kind of experiment: In vivo inhibition of HPPD in human assessed as blood tyrosine levels at 4 mg/kg measured up to 120 hrs. Type of data set: functional.
A short description of data set [19]: Half life in human plasma at 1 mg/kg administered as capsule. Type of data set: ADME, organism-based. To be noted: po.
Data set [20] in a line: Half life in human plasma at 1 mg/kg administered as solution. In kind it is ADME, organism-based.
Data set [21] is filed under the species Homo sapiens. As to the kind of experiment: Inhibition of TAT in human Fibroblasts assessed as reduction in tyrosine level at 10 uM after 72 hrs by LC-MS/MS analysis relative to control.
Data set [22] concerns the target T3, 4-hydroxyphenylpyruvate dioxygenase (Arabidopsis thaliana) (UniProt P93836).
T3 sequence (whole entry): T1 sequence (P93836 whole entry)
As to the kind of experiment: Inhibition of Arabidopsis thaliana HPPD.

The test system of the next data set is Fibroblast. The data set is described as follows: Cytotoxicity against human Fibroblast assessed as reduction in cell viability after 24 to 144 hrs by MTT assay. (Tetrazolium assays rely on reduction of a dye to a coloured formazan, in cell work by metabolically active cells.)
Data set [23] has as its target T4, 4-hydroxyphenylpyruvate dioxygenase (Daucus carota) (UniProt O23920).
T4 sequence (whole entry): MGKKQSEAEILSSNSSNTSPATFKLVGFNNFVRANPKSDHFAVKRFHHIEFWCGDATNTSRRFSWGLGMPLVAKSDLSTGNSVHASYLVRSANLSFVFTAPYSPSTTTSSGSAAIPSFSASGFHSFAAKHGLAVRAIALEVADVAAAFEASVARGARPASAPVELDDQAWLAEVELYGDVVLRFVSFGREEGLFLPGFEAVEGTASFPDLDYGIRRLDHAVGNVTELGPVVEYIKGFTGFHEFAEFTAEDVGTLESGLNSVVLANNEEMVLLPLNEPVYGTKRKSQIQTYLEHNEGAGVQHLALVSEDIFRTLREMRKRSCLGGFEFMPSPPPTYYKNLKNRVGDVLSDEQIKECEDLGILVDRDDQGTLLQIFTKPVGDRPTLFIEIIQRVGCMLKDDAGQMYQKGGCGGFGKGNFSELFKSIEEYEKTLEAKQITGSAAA
The data set is described as follows: Inhibition of carrot HPPD expressed in Escherichia coli JM105 assessed as dissociation half life using HPPA as substrate.

In data set [24] the target is T5, 4-hydroxyphenylpyruvate dioxygenase (Daucus carota, UniProt O23920).
T5 sequence (O23920 whole entry): T4 sequence (whole entry)
As to the kind of experiment: Inhibition of carrot HPPD expressed in Escherichia coli JM105 using HPPA as substrate.

In data set [25] the test system is Plasmodium falciparum. As to the kind of experiment: Antiparasitic activity against chloroquine-resistant Plasmodium falciparum. In kind it is functional.
Data set [26] concerns Plasmodium falciparum. The data set is described as follows: Antiparasitic activity against chloroquine-sensitive Plasmodium falciparum. Type of data set: functional.
For data set [27], the species on record is Homo sapiens. The data set is described as follows: Inhibition of TAT in human Fibroblasts assessed as reduction in tyrosine level at 0.1 uM after 72 hrs by LC-MS/MS analysis relative to control.

As for `O=C1CCCC(=O)C1C(=O)c1ccc(C(F)(F)F)cc1[N+](=O)[O-]` [NITISINONE], the Activity in the data set with Homo sapiens [1] is listed as 1.1 mM; in the data set with Rattus norvegicus [6], >2 mM; in the data set with Homo sapiens [8], 0.136 mM. Further, the inhibition (in general, the percentage by which the read-out fell short of the control) in data set [2] came to 50%. In addition, the half-life (in general, the time in which the quantity being followed falls by half) was 53 h in data set [3] and 63 h in [4]. For the same compound, the T1/2 was 63 h in the data set listed under Rattus norvegicus [5] and 53 h in the data set on Homo sapiens [7]. Take `Cc1nc2c(C)cccc2cc1C(=O)C1C(=O)CCCC1=O`: the Ki – broadly, the dissociation constant of the complex between target and ligand, obtained from inhibition or displacement – in data set [9] is 7 to 9 nM. In data set [10], `O=C1CCCC(=O)C1C(=O)COc1ccccc1Cl` registered a Ki of 31 to 37 nM. For `O=C1C[C@@H](c2ccccc2)Oc2cc(O)cc(O)c21` [PINOCEMBRIN], in data set [11], the IC50 (usually the concentration needed to halve the response being measured) was determined as 73000 nM. In [10], `O=C1CCCC(=O)C1C(=O)COc1ccc([N+](=O)[O-])cc1` returned a Ki of 31 to 37 nM. `CCCCCCCCCC(=O)C1C(=O)C(C)(C)C(=O)C(C)(C)C1=O` came in with an IC50 in [12] of 19 nM. This lies in the double-digit nanomolar range.

Turning to `O=C1CCCC(OC(=O)C2CC2)=C1Cl`, the half-inhibitory concentration (IC50) in [13] stood at 15 nM. Compound `O=C(O)C(O)(O)C(F)c1ccccc1` (stereo unspecified) displayed an IC50 in data set [14] of 10000 nM. On to `Cc1nc2c(C)cccc2cc1C(=O)C1C(=O)CC(C)CC1=O` (stereo unspecified), for which the inhibition constant (Ki) in [9] fell in the range of 7 to 9 nM. Compound `CC(=O)C1=C(O)C=C2Oc3c(C(C)=O)c(O)c(C)c(O)c3[C@@]2(C)C1=O` [(+)-USNIC ACID] showed an IC50 in [11] of 70 nM.

In data set [13], `O=C1CCCC(=O)C1Cc1ccccc1[N+](=O)[O-]` yielded an IC50 of 126000 nM. As for `CCn1c(=O)n(-c2ccccc2C)c(=O)c2cc(C(=O)C3C(=O)CCCC3=O)ccc21`, the inhibition constant Ki in [9] is 5 nM. This lies in the single-digit nanomolar range. As to `CS(=O)(=O)c1ccc(C(=O)C2C(=O)CCCC2=O)c(Cl)c1` [SULCOTRIONE], the “inhibition (INH)” value is recorded as 96% in the data set on Rattus norvegicus [15], 29 - 46% in the data set on Rattus norvegicus [16] and 43 - 175% with Rattus norvegicus [17].

`CS(=O)(=O)c1ccc(C(=O)C2C(=O)CCCC2=O)c([N+](=O)[O-])c1` [MESOTRIONE]: the Activity in the data set with Homo sapiens [18] was <0.5 mM. Also, the half-life in [19] and in data set [20] was 1 h in each case. Also, in the data set listed under Homo sapiens [21], the inhibition came to 14%.

As for `Cc1c(C(=O)c2cn[nH]c2O)ccc(S(C)(=O)=O)c1C1=NOCC1`, the INH in [22] amounted to 600 nM. In turn, `COc1nc2c(C)cccc2cc1C(=O)C1C(=O)CCCC1=O` came in with an inhibition constant (Ki) in [9] of 7 to 9 nM. Same read-out and setting: under `Cc1cccc2cc(C(=O)C3C(=O)CC(C)CC3=O)c(C#N)nc12` (stereo unspecified) stands 7 to 9 nM. `Cc1cc(C2C(=O)C(C(=O)c3ccc(Cl)cc3)C(=O)CC2(C)C)on1` (stereo unspecified): in the data set with Fibroblast, the Activity is given as > 1 mM. For `CC1(C)C(=O)C(C(=O)CCc2ccccc2)C(=O)C(C)(C)C1=O`, the IC50 in data set [12] worked out at 750 nM. In other words, the sub-micromolar range. For the compound `CS(=O)(=O)c1cc(C(F)(F)F)ccc1C(=O)C(C#N)C(=O)C1CC1` (stereo unspecified), the T1/2 in data set [23] was 2 h. Further, in data set [24], the Kd (commonly the concentration at which binding is half-saturated) worked out at 6 nM. As to `Cc1c(O)c(C(=O)CCc2ccccc2)c2c(c1O)[C@@H]1C3=C(O[C@]1(C(C)C)O2)C(C)(C)C(=O)C(C)(C)C3=O`, the half-maximal inhibitory concentration (IC50) in the data set with Plasmodium falciparum [25] came out at 300 nM; in the data set on Plasmodium falciparum [26], 400 nM. `O=C1CCCC(OC(=O)C2CC2)=C1Br` had an IC50 in data set [13] of 28 nM. That is a double-digit nanomolar value.

In the case of `CS(=O)(=O)c1ccc(C(=O)C2C(=O)CCCC2=O)c(Cl)c1COCC(F)(F)F` [TEMBOTRIONE], the Ki in data set [10] came to 13 nM. For `Cc1cccc2cc(C(=O)C3C(=O)CCCC3=O)c(C#N)nc12`, in data set [9], the Ki was in the range of 7 to 9 nM. As for `O=C1CCCC(=O)C1C(=O)COc1ccc(Cl)cc1`, the Ki in data set [10] is 31 to 37 nM.

Regarding `CC1(C)CC(=O)C(C(=O)c2ccc([N+](=O)[O-])cc2Cl)C(=O)C1`, in the data set filed under Homo sapiens [27], the inhibition amounted to 7%. For the same compound, the Activity with Fibroblast is on record as > 1 mM. In data set [12], `CC(C)CC(=O)C1C(=O)C(C)(C)C(=O)C(C)(C)C1=O` showed an IC50 of 11800 nM. This lies in the double-digit micromolar range. Turning to `O=C1CCCCC1C(=O)c1ccccc1[N+](=O)[O-]` (stereo unspecified), in data set [13], it took 700 nM to reach half-maximal inhibition (IC50). This lies in the sub-micromolar range. For the compound `COc1nc2c(C)cccc2cc1C(=O)C1C(=O)CC(C)CC1=O` (stereo unspecified), the Ki in [9] was 7 to 9 nM. In [10], `Cc1ccccc1OCC(=O)C1C(=O)CCCC1=O` gave a Ki of 31 to 37 nM. Take `Cc1c(C(=O)c2cnn(C)c2O)ccc(S(C)(=O)=O)c1C1=NOCC1`: the INH in data set [22] stood at 23 nM.
